# Tests used:
# [1] = test system: human ventricular cardiac tissue strips (hvCTS); experiment: binary SVM cardioactivity index from hvCTS twitch force readouts; assay type: cell-based; settings: for cardioactivity versus vehicle-treated hvCTS by binary SVM accuracy: over tested concentration range, Student's t-test with Bonferroni correction
# Description: The binary SVM is capable of summarizing all parameters and providing a simple metric that expresses a compound's degree of cardioactivity at a given dosage (Lee et al., 2015). […] As a result, a SVM accuracy metric is calculated to reflect the machine's ability to identify a cardioactive effect (e.g. 75% accuracy means that out of 100 data points, the machine could correctly classify 75 of them). To account for variations within the data set, multiple runs are performed to calculate the mean SVM accuracy. […] Prominent cardioactive effects allow the space between the data from treated and control conditions to become more distinguishable, leading to a higher SVM accuracy with 100% being the maximum.
# Although the hvCTSs (FIG. 3, A) were examined under temperature-controlled conditions, there was an observable drift in contractile behavior of the vehicle-treated hvCTSs. For example, the relative measured maximum developed force increased for all pacing frequencies by a cumulative average of 16.96±0.83% upon the ninth serial addition (FIG. 3, B). To account and normalize for baseline drift, each drug condition was compared to its respective vehicle condition via binary SVM (e.g., measurements of the 7th serial drug addition were compared to those of vehicle-treated hvCTSs at the 7th serial addition). To establish a benchmark of non-cardioactivity, a subset of the vehicle-treated hvCTSs were randomly selected to model a non-cardioactive compound. Binary SVM was then performed between the subset and a corresponding control group of equal size (n).
# Human ventricular cardiomyocytes were differentiated from a hES2 stem cell line with a Wnt inhibitor-based protocol as previously described (Weng et al., 2014). Human ventricular cardiac tissue strips (hvCTS) were then formed by mixing cardiomyocytes (100 k cells per strip) at 14-16 days post differentiation with a solution of bovine collagen I (2 mg/mL), Matrigel (0.9 mg/mL), and human foreskin fibroblasts (100 k cells per strip) as previously described (Turnbull et al., 2014). The cell-matrix solution (100 uL per tissue strip) was injected into a custom PDMS force-sensing bioreactor device and placed in an incubator (37° C. and 5% CO2). Formed hvCTSs were fed DMEM with 10% new born calf serum, 1% penicillin-streptomycin and 0.1% amphotericin B. The PDMS device contains two flexible vertical end-posts to which the tissue anchors, causing the posts to deflect as the tissue beats. Contractile force measurements were captured with a high speed (100 fps) CCD camera while custom LabVIEW software tracked the centroid movement of the flexible post tips. Force was converted from the deflection of the PDMS posts by an elastic beam bending equation (Serrao et al., 2012). […]
# [2] = test system: human ventricular cardiac tissue strips (hvCTS); experiment: individual contractile force parameters of electrically paced hvCTS; settings: for change of duration of relaxation phase / change of max force: increasing concentration up to 10^−4 M (100 μM)
# Text: Each of the compounds, with the exception of aspirin, belonged to one of five classes with each class comprising a minimum of two compounds. Aspirin functioned as a reference for a cardiac-neutral compound. […] The parameters include: • 1. Desired pacing frequency. • 2. Captured pacing frequency. • 3. Max force generated (amplitude). • 4. […] Max change of force over time ([…]F/[…]t) of contraction phase. • 9. Max change of force over time ([…]F/[…]t) of relaxation phase. • 10. Duration of rise from 50% cutoff to max force. • 11. Duration of decline from max force to 50% cutoff. • 12. Area under the curve of rise from 50% cutoff to max force. • 13. Area under the curve of decline from max force to 50% cutoff. • 14. […] Area under the curve of rise from 50% cutoff to max force. • 17. Area under the curve of decline from max force to 50% cutoff.
# The cell-matrix solution (100 uL per tissue strip) was injected into a custom PDMS force-sensing bioreactor device and placed in an incubator (37° C. and 5% CO2). Formed hvCTSs were fed DMEM with 10% new born calf serum, 1% penicillin-streptomycin and 0.1% amphotericin B. The PDMS device contains two flexible vertical end-posts to which the tissue anchors, causing the posts to deflect as the tissue beats. Contractile force measurements were captured with a high speed (100 fps) CCD camera while custom LabVIEW software tracked the centroid movement of the flexible post tips. […] A custom MATLAB script was used to calculate 17 parameters that described the overall shape of the force traces for each contractile event (FIG. 1). Each contraction was regarded as an individual data point for the machine learning analysis.
# After 7-8 days post tissue formation, hvCTS were exposed to drugs for pharmacodynamic analysis. Flecainide, lisinopril, norepinephrine and ramipril were provided by Pfizer, while all other compounds were purchased form Sigma-Aldrich. Compounds were initially resuspended in DMSO and subsequently diluted in water for final concentrations composed of less than 0.1% (vol/vol) DMSO. The PDMS device containing the hvCTS was placed onto a heated stage (37° C.) under a dissecting microscope. Before either vehicle or drug addition, the media was replaced with DMEM containing high glucose (4.5 g/L) and HEPES without phenol red. Drug doses were added to a tissue in consecutively increasing manner up to 10 concentrations with 3 minutes in between measurements. Vehicle doses containing only water were applied similarly. A pulse stimulator (AMPI Master-9) connected to platinum wires electrically paced the hvCTS with a monophasic electric field of 5 V/cm with a 10 ms pulse duration.
# SVM accuracies of strips exposed to a drug condition were compared to those of the non-cardioactive benchmark by using Student's t-test (desired a value of 0.05) with a Bonferroni correction (m, number of tests or hypotheses, was dependent on the number of drug additions in a screen). […] The Bonferroni correction was also applied when examining changes in specific parameters.
# [3] = test system: human ventricular cardiac tissue strips (hvCTS); experiment: class relationship metrics: binary SVM with Gaussian fit between 'unknown' and library compound; assay type: cell-based; settings: for Estimated Similar Concentration of digoxin: ouabain at 1.0 × 10^−5 M
# Description: Once the drug classes were predicted, the concentrations of library compounds that induced the most similar cardioactive effects as the ‘unknown’ compounds were computed (FIG. 7; protocol in Example 5).
# The concentration of a library compound that induced the most similar cardioactive effects as the compound of interest was determined. This class relationship metric was computed by first selecting the compound of interest at a desired concentration and performing a series of binary SVM among the tested range of a library compound. For each concentration of the library compound, the closer the SVM accuracy was to 50%, the more defined boundaries of the compounds overlapped and the more similar the cardioactive effects were. This relationship between SVM accuracy and tested concentration range was presumed to behave in a Gaussian manner with the centroid representing the concentration that would elicit the most similar effects. The Gaussian fit was set with 50% as the lower limit and the highest achieved SVM accuracy as the upper limit. If the original SVM accuracies reached the 50% mark and remained around this value for subsequent concentrations, only the first concentration to reach the 50% was included in the fit to accurately model one side of the Gaussian curve.
compound,measurement,setting,value
CCOC(=O)[C@H](CCc1ccccc1)N[C@@H](C)C(=O)N1[C@H](C(=O)O)C[C@@H]2CCC[C@@H]21 [Ramipril],cardioactivity versus vehicle-treated hvCTS by binary SVM accuracy,[1],did not have detectable cardioactive effects
C[C@H]1O[C@@H](O[C@H]2[C@@H](O)C[C@H](O[C@H]3[C@@H](O)C[C@H](O[C@H]4CC[C@@]5(C)[C@H](CC[C@@H]6[C@@H]5C[C@@H](O)[C@]5(C)[C@@H](C7=CC(=O)OC7)CC[C@]65O)C4)O[C@@H]3C)O[C@@H]2C)C[C@H](O)[C@@H]1O [Digoxin],change of duration of relaxation phase,[2]; paced at 0.5 Hz,increase in duration of relaxation phase
same,change of max force,[2]; paced at 0.5 Hz,decrease in max force
CC(=O)Oc1ccccc1C(=O)O [Aspirin],"SVM accuracy, average among all serial additions","[1]; binary SVM vs vehicle-treated hvCTS, 10 nM to 100 μM, n=6",52.85±1.77%
same,cardioactivity versus vehicle-treated hvCTS by binary SVM accuracy,[1],non-cardioactivity
COc1cc(N)c(Cl)cc1C(=O)NC1CCN(CCCOc2ccc(F)cc2)CC1OC (stereo not shown) [Cisapride],change of duration of relaxation phase,[2]; paced at 0.5 Hz,increased
same,change of max force,[2]; paced at 0.5 Hz,decreased
same,Estimated Similar Concentration of flecainide,"[3]; cisapride at 1.0 × 10^−4 M, centroid of Gaussian fit",Flecainide (1.03 × 10^−5) M
C[C@@H]1O[C@@H](O[C@H]2C[C@@H](O)[C@]3(CO)[C@H]4[C@H](O)C[C@]5(C)[C@@H](C6=CC(=O)OC6)CC[C@]5(O)[C@@H]4CC[C@]3(O)C2)[C@H](O)[C@H](O)[C@H]1O [Ouabain],treated strips that stopped beating at all pacing frequencies,[2]; 100 μM,4 of the 10
same,fold lower concentration than digoxin to achieve the same level of cardioactivity,[3]; ouabain 1.0×10^−5 M vs digoxin 5.35×10^−5 M,approximately 5 fold
same,Estimated Similar Concentration of digoxin,[3]; centroid of Gaussian fit,Digoxin (5.35 × 10^−5) M
same,Estimated Similar Concentration of digoxin,"[3]; centroid of Gaussian fit, listed as ouabain",53.5 µM
COCC(=O)O[C@]1(CCN(C)CCCc2nc3ccccc3[nH]2)CCc2cc(F)ccc2[C@@H]1C(C)C [Mibefradil],Estimated Similar Concentration of nifedipine,"[3]; mibefradil at 3.0 × 10^−6 M, centroid of Gaussian fit",Nifedipine (1.28 × 10^−7) M
NCCCC[C@H](N[C@@H](CCc1ccccc1)C(=O)O)C(=O)N1CCC[C@H]1C(=O)O [Lisinopril],cardioactivity versus vehicle-treated hvCTS by binary SVM accuracy,[1],did not have detectable cardioactive effects
CC(C)NCC(O)c1ccc(O)c(O)c1 (stereo not shown) [Isoproterenol],decrease of duration of the relaxation phase (time from maximum developed force to 95% cutoff),[2]; 10 μM,22.19±19.35%
same,increase in maximum developed force,"[2]; 10 μM, paced at 0.5 Hz",10.42±16.23%
same,duration of the relaxation phase versus the vehicle study (lusitropic effect),"[2]; paced at 0.5 Hz, 3.0×10^−7 to 10^−5 M, n=10",decreased significantly
same,inotropic effect,"[2]; paced hvCTS (nifedipine 1 Hz; isoproterenol 10 μM, 0.5 Hz)",negligible inotropic effects
NC[C@H](O)c1ccc(O)c(O)c1 [Norepinephrine],Estimated Similar Concentration of isoproterenol,"[3]; norepinephrine at 1.0 × 10^−5 M, centroid of Gaussian fit",(1.44 × 10^−6) M

# Source: US12411128B2, “Methods and apparatuses for prediction of mechanism of activity of compounds” (The Regents of the University of California, priority 2017, dated 2025)
